Experimental data published in patent US20240189264A1 (priority 2024, published 2024).

CC(C)NCC(O)COc1ccc(CC(N)=O)cc1 (centres unmarked) [Atenolol]
C-reactive protein (CRP) level (in words) (patients taking atenolol single dose): significantly high | response of hypertensive patients to atenolol (single dose of 100 mg atenolol, oral administration): mostly respond
